Results taken from patent US4560679A, “Organosilicon compounds and antitumor agents containing the compound as effective component” (Sanwa Kagaku Kenkyusho Co. Ltd., priority 1982, dated 1985).
≈ marks a conversion by molar mass, not a printed value. Read-outs that look alike come from different tables or passages of the source.

Assays:
[1] = acute toxicity; conditions: mouse, in vivo, ICR female mice, observed 7 days
From the text: Each of compounds according to the invention was suspended in 0.1% P-1570 aqueous solution of sugar ester or 0.5% CMC aqueous solution. The suspension abdominally or orally dosed to ICR female mice (weight: 20±1 g).

[2] = test system: B-16 melanoma carcinoma (B-16); test: proliferation inhibiting effect in explantation (B-16); format: cell-based; conditions: Mus musculus, B16, 72 h, 3 days culture with compound, living cells by dye-exclusion (tripan blue)
Protocol: (§1) Test 1 (proliferation inhibiting effect in explantation)
(§2) Following carcinomata are employed.
(§3) (4) B-16 melanoma carcinoma (hereinafter referred to as "B-16").
(§4) 1×10^5 cells of each carcinoma are cultured for 24 hours in an ox serum eagle culture solution with use of a culture test tube and a carbon dioxide gas culturing device (5% CO2, 37° C.). After 24 hours, the used culture solution was flowed-out and each 0.1 ml of a freshly prepared culture solution containing a compound according to the invention was added to further continue the culture for 3 days. After completion of the culture, number of living cells was measured with use of a dye-exclusion method due to tripan blue dying. To each of control groups, 0.1 ml of the same culture solution but containing no compound according to the invention was added.
(§5) Concentrations on 50% inhibition of the carcinoma cells (IC50) were determined between the testing groups and control groups, according to the manner as stated above.

[3] = test system: Ehrlich ascites carcinoma (EAC); test: proliferation inhibiting effect in explantation (EAC); format: cell-based; conditions: 72 h, 3 days culture with compound, living cells by dye-exclusion (tripan blue)
Protocol: as §1, §2
(§6) (2) Ehrlich ascites carcinoma (hereinafter referred to as "EAC"),
as §4, §5

[4] = test system: Lewis lung carcinoma (LLC); test: proliferation inhibiting effect in explantation (LLC); format: cell-based; conditions: 72 h, 3 days culture with compound, living cells by dye-exclusion (tripan blue)
Protocol: as §1, §2
(1) Lewis lung carcinoma (hereinafter referred to as "LLC"),
as §4, §5

[5] = test system: Ehrlich ascites carcinoma (EAC); test: carcinoma cell weight inhibiting effect in mice (EAC); format: in vivo; conditions: ICR-CD mice; oral, 1/5 LD50 one time/day for 5 days; 21 days from final dosage
From the text: as §6
(§7) Test 2 (carcinoma cell weight inhibiting effect in mice)
(§8) B-16 and EAC were given to BDF and ICR-CD mice, respectively by a hypodermic injection. 1.0×10^5 cells on B-16 and 5.0×10^6 cells on EAC were given to each mouse. Each of the compounds according to the invention was orally dosed for 5 days in an amount of 1/5 LD50 (one time/day). After lapsed 21 days from the final dosage, the carcinoma of each mouse was exenterated, measured its weight and calculated a mean weight as the inhibiting ratio which is shown in the following Table.

[6] = test system: B-16 melanoma carcinoma (B-16); test: carcinoma cell weight inhibiting effect in mice (B-16); format: in vivo; conditions: BDF mice; oral, 1/5 LD50 one time/day for 5 days; 21 days from final dosage
From the text: as §3, §7, §8

[7] = test system: K.B. carcinoma (KB); test: proliferation inhibiting effect in explantation (KB); format: cell-based; conditions: 72 h, 3 days culture with compound, living cells by dye-exclusion (tripan blue)
Protocol: as §1, §2
(3) K.B. carcinoma (hereinafter referred to as "KB"), and
as §4, §5

[8] = ip, abdominal dosage, read-out: Acute Toxicity LD50, Abdominal Dosage
[9] = oral dosage, read-out: Acute Toxicity LD50, Oral Dosage

SMILES | LD50 at 168 h [1, 8] [mg/kg] | LD50 at 168 h [1, 9] [mg/kg] | IC50 [2] [µg/mL] | IC50 [3] [µg/mL] | IC50 [4] [µg/mL] | inhibiting ratio (carcinoma weight), EAC [5] | inhibiting ratio (carcinoma weight), B-16 [6] | IC50 [7] [µg/mL]
CNCCSCC[Si](C)(C)C [SKK-009] | 189 | 800 |  |  |  |  |  | 
C[Si](C)(C)CCSCCNC1CCCCC1 [SKK-010] | 152 | 825 |  |  |  |  |  | 
C=CCNCCSCC[Si](C)(C)C [SKK-011] | 134 | 846 |  |  |  |  |  | 
C[Si](C)(C)CCSCCNC(=O)c1ccccc1 [SKK-012] | 1190 | > 2000 | 16 (≈ 56.8 µM) | 15 (≈ 53.3 µM) | 4.3 (≈ 15.3 µM) | 76 | 62 | 17 (≈ 60.4 µM)
C[Si](C)(C)CCSCCNC(=O)c1cccnc1 [SKK-021] | < 500 | > 2000 | < 5 | 12 (≈ 42.5 µM) | 5 (≈ 17.7 µM) | 70 | 93 | 10 (≈ 35.4 µM)
C[Si](C)(C)CCSCCNC(=O)c1ccco1 [SKK-022] | < 1000 | > 2000 | 20 (≈ 73.7 µM) | 15 (≈ 55.3 µM) | 9 (≈ 33.2 µM) | 65 | 58 | 17 (≈ 62.6 µM)
C[Si](C)(C)CCSCCNC(=O)c1cccs1 [SKK-023] | > 1000 | > 2000 |  |  |  |  |  | 
C[Si](C)(C)CCSCCNC(=O)c1cccc2ccccc12 [SKK-024] | > 2000 | > 3000 | 25 (≈ 75.4 µM) | 18 (≈ 54.3 µM) | 13 (≈ 39.2 µM) | 62 | 60 | 14 (≈ 42.2 µM)
CC(=O)NCCSCC[Si](C)(C)C [SKK-025] | ~100 | 1000 to 2000 |  |  |  |  |  | 
C[Si](C)(C)CCSCCNC(=O)C1CCCCC1 [SKK-026] | 500 to 1000 | 1000 to 2000 |  |  |  |  |  | 
CCCCCCCC(=O)NCCSCC[Si](C)(C)C [SKK-027] | 2000 to 3000 | > 3000 |  |  |  |  |  | 
Cc1ccc(S(=O)(=O)NCCSCC[Si](C)(C)C)cc1 [SKK-028] | > 2500 | > 3000 | 14 (≈ 42.2 µM) | 30 (≈ 90.5 µM) | 14 (≈ 42.2 µM) | 55 | 85 | 10 (≈ 30.2 µM)
